Source: US20220118121A1, “PROSTATE SPECIFIC MEMBRANE ANTIGEN (PSMA) LIGANDS WITH IMPROVED TISSUE SPECIFICITY” (Ruprecht-Karls-Universität Heidelberg, priority 2019, published 2022)
Read-outs that look alike come from different tables or passages of the source. Where a SMILES comes first, the peptide text is derived from it. [ ]: non-standard residue; d: D form. The star is where a group is joined. DOTA = O=C(O)CN1CCN(CC(=O)O)CCN(CC(=O)*)CCN(CC(=O)O)CC1; EuK = O=C(O)CC[C@H](NC(=O)N[C@@H](CCCCN*)C(=O)O)C(=O)O; 2Nal = N[C@@H](Cc1ccc2ccccc2c1)C(=O)O; Trx = NC[C@H]1CC[C@H](C(=O)O)CC1

What was measured:
PSMA = target: T1, PSMA (Homo sapiens, UniProt Q04609); test: competitive cell binding assay vs 68Ga-labeled PSMA-10 on LNCaP cells
T1 construct: host or cells: LNCaP cells
T1 sequence (Q04609 whole entry): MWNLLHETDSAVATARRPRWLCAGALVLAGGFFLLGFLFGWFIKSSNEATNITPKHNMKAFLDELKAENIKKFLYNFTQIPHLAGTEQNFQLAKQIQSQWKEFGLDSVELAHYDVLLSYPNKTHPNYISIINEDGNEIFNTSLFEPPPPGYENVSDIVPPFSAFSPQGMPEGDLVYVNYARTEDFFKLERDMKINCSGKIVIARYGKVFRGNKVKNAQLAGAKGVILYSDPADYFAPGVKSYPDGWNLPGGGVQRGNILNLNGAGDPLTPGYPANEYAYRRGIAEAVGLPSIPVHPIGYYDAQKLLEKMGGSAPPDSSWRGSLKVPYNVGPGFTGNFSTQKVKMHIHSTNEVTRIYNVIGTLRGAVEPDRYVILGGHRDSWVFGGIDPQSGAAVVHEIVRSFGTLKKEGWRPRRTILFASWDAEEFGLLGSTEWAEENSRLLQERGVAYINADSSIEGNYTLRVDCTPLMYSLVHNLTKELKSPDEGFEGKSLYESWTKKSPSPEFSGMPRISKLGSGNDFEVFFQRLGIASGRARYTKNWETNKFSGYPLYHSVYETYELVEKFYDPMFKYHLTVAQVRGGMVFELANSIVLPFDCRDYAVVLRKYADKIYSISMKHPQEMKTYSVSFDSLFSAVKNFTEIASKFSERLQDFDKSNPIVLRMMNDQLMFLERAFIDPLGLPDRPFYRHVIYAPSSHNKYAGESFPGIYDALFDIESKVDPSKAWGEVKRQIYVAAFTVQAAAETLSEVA
Procedure: (§1) PSMA^+ LNCaP cells (ATCC CRL-1740) were cultured in RPMI medium. Cells were grown at 37° C. in humidified air with 5% C02 and were harvested using trypsin-ethylenediaminetetraacetic acid.
(§2) The competitive cell binding assay and internalization experiments were performed according to Eder M et al. (2012), Bioconjug Chem 23(4):688.
Briefly, the cells (10^5 per well) were incubated with a 0.8 nM solution of ^68Ga-labeled radioligand [Glu-urea-Lys(Ahx)]2-HBED-CC (PSMA-10, precursor ordered from ABX, Radeberg, Germany) in the presence of 12 different concentrations of analyte (0-5000 nM, 100 μL/well). After incubation, the mixture was removed and the wells were washed 3 times with PBS using a multiscreen vacuum manifold (Millipore, Billerica, Mass.). Cell-bound radioactivity was measured using a gamma counter (Packard Cobra II, GMI, Minnesota, USA). The 50% inhibitory concentration (IC50) values were calculated by fitting the data using a nonlinear regression algorithm (GraphPad Software).

PSMA+ LNCaP cells = test: cell surface binding and internalization of radiolabeled compounds; type: cell-based; conditions: for Specific Cell Surface Binding / Specific Internalization / Cell Surface binding / Internalization: 68Ga-labeled; for Specific cell surface bound / Specific internalized: 177Lu-labeled, LNCaP cells
Procedure: as §1, §2
For internalization experiments, 10^5 cells per well were seeded in poly-L-lysine coated 24-well cell culture plates 24 h before incubation. After washing, the cells were incubated with 30 nM of the ^68Ga- or ^177Lu-radiolabeled compound for 45 min at 37° C. and at 4° C., respectively. Cellular uptake was terminated by washing 3 times with 1 mL of ice-cold PBS. To remove surface-bound radioactivity, cells were incubated twice with 0.5 mL glycine-HCl in PBS (50 mM, pH=2.8) for 5 min. The cells were washed with 1 mL of ice-cold PBS and lysed using 0.3 N NaOH (0.5 mL). The surface-bound and the internalized fractions were measured in a gamma counter. The cell uptake was calculated as percent of the initially added radioactivity bound to 10^5 cells [% ID/10^5 cells].

[1] = LNCaP cells, 0.8 nM 68Ga-PSMA-10 radioligand, read-out: Specific Binding Affinity IC50

| SMILES | IC50 (PSMA; [1]) [nM] | Specific Cell Surface Binding (PSMA+ LNCaP cells) [% ID/10^5 cells] | Specific Internalization (PSMA+ LNCaP cells) [% ID/10^5 cells] | Cell Surface binding (PSMA+ LNCaP cells; blocked) [% ID/10^5 cells] | Internalization (PSMA+ LNCaP cells; blocked) [% ID/10^5 cells] | Cell Surface binding (PSMA+ LNCaP cells; not blocked) [% ID/10^5 cells] | Internalization (PSMA+ LNCaP cells; not blocked) [% ID/10^5 cells] | Specific cell surface bound (PSMA+ LNCaP cells) [% ID/10^5 cells] | Specific internalized (PSMA+ LNCaP cells) [% ID/10^5 cells] | IC50 (PSMA) [nM] |
| --- | --- | --- | --- | --- | --- | --- | --- | --- | --- | --- |
| O=C(O)CC[C@H](NC(=O)N[C@@H](CCCCNC(=O)[C@H](Cc1ccc2ccccc2c1)NC(=O)[C@H](Cc1c[nH]cn1)NC(=O)[C@H](Cc1c[nH]cn1)NC(=O)[C@H](Cc1c[nH]cn1)NC(=O)[C@H]1CC[C@H](CNC(=O)CN2CCN(CC(=O)O)CCN(CC(=O)O)CCN(CC(=O)O)CC2)CC1)C(=O)O)C(=O)O [PS10, DOTA-CHx-(H)3-2NaI-PSMA] ({DOTA-Trx}-HHH[2Nal]-EuK) | 54 ± 20.9 | 0.55 ± 0.08 | 0.44 ± 0.08 | 0.027 ± 0.006 | 0.083 ± 0.006 | 0.580 ± 0.046 | 0.523 ± 0.078 | – | – | – |
| O=C(O)CC[C@H](NC(=O)N[C@@H](CCCCNC(=O)[C@H](Cc1c[nH]cn1)NC(=O)[C@H](CCC(=O)O)NC(=O)[C@H](Cc1c[nH]cn1)NC(=O)[C@H](CCC(=O)O)NC(=O)[C@H](Cc1c[nH]cn1)NC(=O)[C@H](CCC(=O)O)NC(=O)[C@H](Cc1ccc2ccccc2c1)NC(=O)[C@H]1CC[C@H](CNC(=O)CN2CCN(CC(=O)O)CCN(CC(=O)O)CCN(CC(=O)O)CC2)CC1)C(=O)O)C(=O)O [PS-1, DOTA-CHx-2NaI-(EH)3-PSMA] ({DOTA-Trx}-[2Nal]EHEHEH-EuK) | 56 ± 7.7 | 1.09 ± 0.17 | 0.46 ± 0.11 | 0.069 ± 0.013 | 0.212 ± 0.037 | 1.162 ± 0.183 | 0.676 ± 0.155 | 6.84 ± 0.06 | 4.32 ± 0.03 | – |
| O=C(O)CC[C@H](NC(=O)N[C@@H](CCCCNC(=O)[C@H](Cc1ccc2ccccc2c1)NC(=O)[C@H]1CC[C@H](CNC(=O)[C@H](Cc2c[nH]cn2)NC(=O)[C@H](CCC(=O)O)NC(=O)[C@H](Cc2c[nH]cn2)NC(=O)[C@H](CCC(=O)O)NC(=O)[C@H](Cc2c[nH]cn2)NC(=O)[C@H](CCC(=O)O)NC(=O)CN2CCN(CC(=O)O)CCN(CC(=O)O)CCN(CC(=O)O)CC2)CC1)C(=O)O)C(=O)O [PS-2, DOTA-(EH)3-CHx-2NaI-PSMA] ({DOTA}-EHEHEH[Trx][2Nal]-EuK) | 37 ± 11.4 | 1.27 ± 0.15 | 0.61 ± 0.15 | 0.060 ± 0.017 | 0.187 ± 0.032 | 1.333 ± 0.127 | 0.797 ± 0.122 | 9.55 ± 1.61 | 6.00 ± 0.71 | – |
| O=C(O)CC[C@H](NC(=O)N[C@@H](CCCCNC(=O)[C@H](Cc1ccc2ccccc2c1)NC(=O)[C@H](Cc1c[nH]cn1)NC(=O)[C@H](CCC(=O)O)NC(=O)[C@H](Cc1c[nH]cn1)NC(=O)[C@H](CCC(=O)O)NC(=O)[C@H](Cc1c[nH]cn1)NC(=O)[C@H](CCC(=O)O)NC(=O)[C@H]1CC[C@H](CNC(=O)CN2CCN(CC(=O)O)CCN(CC(=O)O)CCN(CC(=O)O)CC2)CC1)C(=O)O)C(=O)O [PS-3, DOTA-Chx-(EH)3-2NaI-PSMA] ({DOTA-Trx}-EHEHEH[2Nal]-EuK) | 43.1 ± 9.63 | 0.84 ± 0.03 | 0.24 ± 0.02 | 0.183 ± 0.025 | 0.317 ± 0.025 | 1.023 ± 0.140 | 0.557 ± 0.042 | – | – | – |
| O=C(O)CC[C@H](NC(=O)N[C@@H](CCCCNC(=O)[C@H](Cc1ccc2ccccc2c1)NC(=O)[C@H]1CC[C@H](CNC(=O)[C@H](Cc2c[nH]cn2)NC(=O)[C@H](CCC(=O)O)NC(=O)[C@H](Cc2c[nH]cn2)NC(=O)[C@H](CCC(=O)O)NC(=O)[C@H](Cc2c[nH]cn2)NC(=O)[C@H](CCC(=O)O)NC(=O)[C@H](Cc2c[nH]cn2)NC(=O)[C@H](CCC(=O)O)NC(=O)CN2CCN(CC(=O)O)CCN(CC(=O)O)CCN(CC(=O)O)CC2)CC1)C(=O)O)C(=O)O [PS-4, DOTA-(EH)4-CHx-2NaI-PSMA] ({DOTA}-EHEHEHEH[Trx][2Nal]-EuK) | 46.7 ± 37.3 | 1.33 ± 0.09 | 0.52 ± 0.04 | 0.083 ± 0.029 | 0.151 ± 0.048 | 1.420 ± 0.113 | 0.676 ± 0.070 | – | – | – |
| O=C(O)CC[C@H](NC(=O)N[C@@H](CCCCNC(=O)[C@H](Cc1ccc2ccccc2c1)NC(=O)[C@H]1CC[C@H](CNC(=O)[C@H](CCC(=O)O)NC(=O)[C@H](Cc2c[nH]cn2)NC(=O)[C@H](CCC(=O)O)NC(=O)[C@H](Cc2c[nH]cn2)NC(=O)[C@H](CCC(=O)O)NC(=O)[C@H](Cc2c[nH]cn2)NC(=O)CN2CCN(CC(=O)O)CCN(CC(=O)O)CCN(CC(=O)O)CC2)CC1)C(=O)O)C(=O)O [PS-4.2, DOTA-(HE)3-CHx-2NaI-PSMA] ({DOTA}-HEHEHE[Trx][2Nal]-EuK) | 27.9 ± 6.93 | 1.35 ± 0.28 | 0.71 ± 0.28 | 0.080 ± 0.010 | 0.113 ± 0.023 | 1.437 ± 0.138 | 0.676 ± 0.070 | – | – | – |
| O=C(O)CC[C@H](NC(=O)N[C@@H](CCCCNC(=O)[C@H](Cc1ccc2ccccc2c1)NC(=O)[C@H]1CC[C@H](CNC(=O)[C@H](CCC(=O)O)NC(=O)[C@H](CCC(=O)O)NC(=O)[C@H](CCC(=O)O)NC(=O)CN2CCN(CC(=O)O)CCN(CC(=O)O)CCN(CC(=O)O)CC2)CC1)C(=O)O)C(=O)O [PS-5, DOTA-(E)3-CHx-2NaI-PSMA] ({DOTA}-EEE[Trx][2Nal]-EuK) | – | 0.94 ± 0.13 | 0.63 ± 0.28 | 0.055 ± 0.013 | 0.095 ± 0.026 | 1.003 ± 0.127 | 0.725 ± 0.269 | – | – | 10.4 ± 2.94 |
| O=C(O)CC[C@H](NC(=O)N[C@@H](CCCCNC(=O)[C@H](CCC(=O)O)NC(=O)[C@H](CCC(=O)O)NC(=O)[C@H](CCC(=O)O)NC(=O)[C@H](Cc1ccc2ccccc2c1)NC(=O)[C@H]1CC[C@H](CNC(=O)CN2CCN(CC(=O)O)CCN(CC(=O)O)CCN(CC(=O)O)CC2)CC1)C(=O)O)C(=O)O [PS-6, DOTA-CHx-2NaI-(E)3-PSMA] ({DOTA-Trx}-[2Nal]EEE-EuK) | 28.6 ± 8.42 | 0.71 ± 0.12 | 0.45 ± 0.12 | 0.050 ± 0.020 | 0.156 ± 0.023 | 0.767 ± 0.156 | 0.607 ± 0.136 | – | – | – |
